Reference: US9670206B2, “Pyrido[4,3-B]pyrazine-2-carboxamides as neurogenic agents for the treatment of neurodegenerative disorders” (Hoffmann-La Roche Inc., priority 2013, dated 2017)

What follows are compounds tested on human embryonic stem cell derived neural stem cells (NSCs) (assay: Neural stem cell proliferation assay (neurogenesis assay, ATP levels by CellTiterGlo)). Details: 96 h, compound concentration at which 150% activity of control (100%) is reached, NSC proliferation, ATP readout after 4 days incubation.
Type: cell-based
Method: Neural Stem Cell Proliferation Assay
Neurogenic properties of small molecules are determined based on the proliferation of human embryonic stem cell derived neural stem cells (NSCs) which were derived via a dual smad inhibition as previously described (Chambers, S. M., et al., Highly efficient neural conversion of human ES and iPS cells by dual inhibition of SMAD signaling, Nature biotechnology, 2009. 27(3): p. 275-80.) Compounds respond is measured by the increase in cells based on ATP levels (Promega:CellTiterGlo®) after an incubation period of 4 days. NSCs are thawed and expanded over 3 passages. On the 14th day, NSCs are seeded in Polyornithin/Laminin coated 384 well plates at a cell density of 21,000 cells/cm^2 in a media volume of 38 μl. 4 hours after cell seeding, compound solutions are added at a volume of 2 μl. Stock solutions of the compounds (water, 5% DMSO) are diluted to obtain a dose response (11 points, dilution factor is 2), ranging from 8 μM to 8 nM. Controls are run to consistently determine the neurogenic properties of the cells: Negative (neutral) control is cell culture Media (final DMSO concentration: 0.25%). Positive controls are: • 1. cell culture Media+100 ng/ml FGF2 (final DMSO concentration: 0.1%) • 2. cell culture Media+20 ng/ml EGF (final DMSO concentration: 0.1%) • 3. cell culture Media+100 ng/ml Wnt3a (final DMSO concentration: 0.1%) After 4 days incubation at 37° C., 5% CO2, the amount of ATP per well is quantified. The ATP concentration is proportional to the cell number. ATP is quantified by using the Promega CellTiterGlo® kit. The CellTiterGlo® reagents contain a cell lysis buffer, a thermo stable luciferase (UltraGlo™ recombinant luciferase), magnesium and luciferin. Luciferin reacts with ATP producing oxyluciferin, AMP and light. The luminescence signal is proportional to the ATP content. The value of negative (neutral) control is determined for each assay plate by taking the average of 16 negative control wells. The neurogenic compound response is calculated for each compound as (compound/Negative Control)*100. The values of EC150 from the dose response curve are determined for each test compound. The EC150 is the compound concentration at which 150% activity of control (100%) is reached.

Point of comparison: `O=C(c1cnc2cncc(-c3ccc(C(F)(F)F)cc3)c2n1)N1CCC(O)C1` (stereo not shown) [Example 28, (3-Hydroxypyrrolidin-1-yl)(8-(4-(trifluoromethyl)phenyl)pyrido[4,3-b]pyrazin-2-yl)methanone], EC (150% of control) 0.29 µM. Against it:
- NC(=O)c1cnc2cncc(-c3ccc(Cl)cc3)c2n1 [Example 1, 8-(4-Chlorophenyl)pyrido[4,3-b]pyrazine-2-carboxamide] — within 1.5-fold, 0.21 µM
- NC(=O)c1cnc2cncc(-c3ccc(C(F)(F)F)cc3)c2n1 [Example 2, 8-(4-(Trifluoromethyl)phenyl)pyrido[4,3-b]pyrazine-2-carboxamide] — within 1.5-fold, 0.3 µM
- N#CC1(NC(=O)c2cnc3cncc(Br)c3n2)CC1 [Example 3, 8-Bromo-N-(1-cyanocyclopropyl)pyrido[4,3-b]pyrazine-2-carboxamide] — 8-fold higher, 2.32 µM
- O=C(c1cnc2cncc(Br)c2n1)N1CCOCC1 [Example 4, (8-Bromopyrido[4,3-b]pyrazin-2-yl)(morpholino)methanone] — 4.1-fold lower, 0.07 µM
- CC(NC(=O)c1cnc2cncc(-c3ccc(Cl)cc3)c2n1)C(C)(C)O (stereo not shown) [Example 5, 8-(4-Chlorophenyl)-N-(3-hydroxy-3-methylbutan-2-yl)pyrido[4,3-b]pyrazine-2-carboxamide] — 3.1-fold higher, 0.89 µM
- CC(NC(=O)c1cnc2cncc(-c3ccc(C(F)(F)F)cc3)c2n1)C(C)(C)O (stereo not shown) [Example 6, N-(3-Hydroxy-3-methylbutan-2-yl)-8-(4-(trifluoromethyl)phenyl)pyrido[4,3-b]pyrazine-2-carboxamide] — within 1.5-fold, 0.38 µM
- N#CC1(NC(=O)c2cnc3cncc(-c4ccc(Cl)cc4)c3n2)CC1 [Example 7, 8-(4-Chlorophenyl)-N-(1-cyanocyclopropyl)pyrido[4,3-b]pyrazine-2-carboxamide] — within 1.5-fold, 0.39 µM
- N#CC1(NC(=O)c2cnc3cncc(-c4ccc(C(F)(F)F)cc4)c3n2)CC1 [Example 8, N-(1-Cyanocyclopropyl)-8-(4-(trifluoromethyl)phenyl)pyrido[4,3-b]pyrazine-2-carboxamide] — within 1.5-fold, 0.39 µM
- O=C(c1cnc2cncc(-c3ccc(Cl)cc3)c2n1)N1CCOCC1 [Example 9, (8-(4-Chlorophenyl)pyrido[4,3-b]pyrazin-2-yl)(morpholino)methanone] — 2.2-fold higher, 0.65 µM
- O=C(c1cnc2cncc(-c3ccc(C(F)(F)F)cc3)c2n1)N1CCOCC1 [Example 10, Morpholino(8-(4-(trifluoromethyl)phenyl)pyrido[4,3-b]pyrazin-2-yl)methanone] — 10-fold higher, 2.96 µM
- O=C(NCc1ccccc1)c1cnc2cncc(-c3ccc(C(F)(F)F)cc3)c2n1 [Example 11, N-Benzyl-8-(4-(trifluoromethyl)phenyl)pyrido[4,3-b]pyrazine-2-carboxamide] — within 1.5-fold, 0.41 µM
- O=C(NCc1ccccc1)c1cnc2cncc(-c3ccc(Cl)cc3)c2n1 [Example 12, N-Benzyl-8-(4-chlorophenyl)pyrido[4,3-b]pyrazine-2-carboxamide] — within 1.5-fold, 0.26 µM
- NC(=O)c1cnc2cncc(-c3ccc(Cl)cc3Cl)c2n1 [Example 13, 8-(2,4-Dichlorophenyl)pyrido[4,3-b]pyrazine-2-carboxamide] — within 1.5-fold, 0.28 µM
- NC(=O)c1cnc2cncc(-c3ccc(F)cc3)c2n1 [Example 14, 8-(4-Fluorophenyl)pyrido[4,3-b]pyrazine-2-carboxamide] — 2.9-fold lower, 0.1 µM
- NC(=O)c1cnc2cncc(-c3cc(F)c(F)c(F)c3)c2n1 [Example 15, 8-(3,4,5-Trifluorophenyl)pyrido[4,3-b]pyrazine-2-carboxamide] — 1.9-fold higher, 0.55 µM
- NC(=O)c1cnc2cncc(-c3ccccc3F)c2n1 [Example 16, 8-(2-Fluorophenyl)pyrido[4,3-b]pyrazine-2-carboxamide] — 4.8-fold lower, 0.06 µM
- NC(=O)c1cnc2cncc(-c3ccc(C(F)(F)F)cc3F)c2n1 [Example 17, 8-(2-Fluoro-4-(trifluoromethyl)phenyl)pyrido[4,3-b]pyrazine-2-carboxamide] — 3.6-fold lower, 0.08 µM
- NC(=O)c1cnc2cncc(-c3ccc(Cl)nc3)c2n1 [Example 18, 8-(6-Chloropyridin-3-yl)pyrido[4,3-b]pyrazine-2-carboxamide] — within 1.5-fold, 0.21 µM
- NC(=O)c1cnc2cncc(-c3ccc(OC(F)(F)F)cc3)c2n1 [Example 19, 8-(4-(Trifluoromethoxy)phenyl)pyrido[4,3-b]pyrazine-2-carboxamide] — 3.2-fold lower, 0.09 µM
- NC(=O)c1cnc2cncc(-c3cc(C(F)(F)F)ccc3F)c2n1 [Example 20, 8-(2-Fluoro-5-(trifluoromethyl)phenyl)pyrido[4,3-b]pyrazine-2-carboxamide] — within 1.5-fold, 0.22 µM
- NC(=O)c1cnc2cncc(-c3cccc(OC(F)(F)F)c3)c2n1 [Example 21, 8-(3-(Trifluoromethoxy)phenyl)pyrido[4,3-b]pyrazine-2-carboxamide] — within 1.5-fold, 0.21 µM
- NC(=O)c1cnc2cncc(-c3ccc(Cl)cc3F)c2n1 [Example 22, 8-(4-Chloro-2-fluorophenyl)pyrido[4,3-b]pyrazine-2-carboxamide] — 4.1-fold lower, 0.07 µM
- NC(=O)c1cnc2cncc(-c3ccc(Cl)c(F)c3)c2n1 [Example 23, 8-(4-Chloro-3-fluorophenyl)pyrido[4,3-b]pyrazine-2-carboxamide] — 2.9-fold lower, 0.1 µM
- NC(=O)c1cnc2cncc(-c3ccc(C(F)(F)F)c(F)c3)c2n1 [Example 24, 8-(3-Fluoro-4-(trifluoromethyl)phenyl)pyrido[4,3-b]pyrazine-2-carboxamide] — 1.6-fold lower, 0.18 µM
- NC(=O)c1cnc2cncc(C3=CCOCC3)c2n1 [Example 25, 8-(3,6-Dihydro-2H-pyran-4-yl)pyrido[4,3-b]pyrazine-2-carboxamide] — 2.3-fold higher, 0.66 µM
- NC(=O)c1cnc2cncc(-c3cccc(C(F)(F)F)c3)c2n1 [Example 26, 8-(3-(Trifluoromethyl)phenyl)pyrido[4,3-b]pyrazine-2-carboxamide] — within 1.5-fold, 0.43 µM
- NC(=O)c1cnc2cncc(-c3ccc(F)c(F)c3)c2n1 [Example 27, 8-(3,4-Difluorophenyl)pyrido[4,3-b]pyrazine-2-carboxamide] — 2.4-fold lower, 0.12 µM
- NC(=O)c1cnc2cncc(-c3ccc(CO)cc3)c2n1 [Example 29, 8-(4-(Hydroxymethyl)phenyl)pyrido[4,3-b]pyrazine-2-carboxamide] — 5.8-fold lower, 0.05 µM
- O=C(c1cnc2cncc(-c3ccc(Cl)cc3)c2n1)N1CCC(O)C1 (stereo not shown) [Example 30, (8-(4-Chlorophenyl)pyrido[4,3-b]pyrazin-2-yl)(3-hydroxypyrrolidin-1-yl)methanone] — 2.4-fold higher, 0.69 µM
- O=C(NCc1ccccc1)c1cnc2cncc(-c3cccnc3)c2n1 [Example 31, N-Benzyl-8-(pyridin-3-yl)pyrido[4,3-b]pyrazine-2-carboxamide] — 1.6-fold higher, 0.47 µM
- O=C(c1cnc2cncc(-c3ccc(Cl)cc3)c2n1)N1CCS(=O)(=O)CC1 [Example 32, [8-(4-Chlorophenyl)pyrido[3,4-b]pyrazin-2-yl]-(1,1-dioxo-1,4-thiazinan-4-yl)methanone] — 2.9-fold higher, 0.84 µM
- O=C(c1cnc2cncc(-c3ccc(C(F)(F)F)cc3)c2n1)N1CCS(=O)(=O)CC1 [Example 33, (1,1-Dioxo-1,4-thiazinan-4-yl)-[8-[4-(trifluoromethyl)phenyl]pyrido[3,4-b]pyrazin-2-yl]methanone] — 5.7-fold higher, 1.65 µM
- N#Cc1ccc(-c2cncc3ncc(C(N)=O)nc23)cc1 [Example 34, 8-(4-Cyanophenyl)pyrido[4,3-b]pyrazine-2-carboxamide] — 1.9-fold lower, 0.15 µM
